Laboratory results published in patent publication US11364208B2, “Topical compositions” (DSM IP ASSETS B.V., priority 2017, dated 2022).

Assays:
Malassezia furfur = test: Antimicrobial efficacy in analogy to challenge test NF EN ISO11930, Malassezia furfur; format: cell-based; conditions: for Δ (change of microorganism count t = 0 h to t = 24): 24 h, 0.5 wt.-% of each active; for Δ (change of microorganism count t = 0 h to t = 24) / Malassezia furfur colony count: 22° C., initial count 3300 cfu/ml; for Malassezia furfur colony count: 24 h after contamination, physiological serum 0.85 wt.-% NaCl, 0.5 wt.-% of each active (0.5 wt.-% Erythrulose corresponds to 0.4 wt.-% of active)
Procedure: (§1) The wells were contaminated with Malassezia furfur, Propionibacterium acnes, respectively Aspergillus brasiliensis to obtain the initial contamination as outlined in table 1, 2 and 3. […] The counting of the (remaining) population was carried out 24 h after contamination.

Aspergillus brasiliensis = test: Antimicrobial efficacy in analogy to challenge test NF EN ISO11930, Aspergillus brasiliensis; format: cell-based; conditions: 24 h, 22° C.; for Aspergillus brasiliensis colony count: initial count 10000 cfu/ml
Procedure: as §1
(The term “Log reduction” is a well-known mathematical term used to show the relative number of cells, germs, microbes, etc., reduced in or on something, e.g. a 2 log reduction means the number of microbes is 100 times smaller and a 3 log reduction means the number of microbes is 1000 times smaller).

[1] = 0.5 wt.-% Erythrulose (corresponds to 0.4 wt.-% of active)
[2] = 0.4 wt.-% p-Hydroxyacetophenone

Compound | Δ (change of microorganism count t = 0 h to t = 24) (Malassezia furfur) | Malassezia furfur colony count (Malassezia furfur) | anti-fungal effect against Malassezia furfur (in words) (Malassezia furfur; concentration of 0.5%) | Log step reduction (Aspergillus brasiliensis; [1]) | Aspergillus brasiliensis colony count (Aspergillus brasiliensis; [1]) | Log step reduction (Aspergillus brasiliensis; [2]) | Aspergillus brasiliensis colony count (Aspergillus brasiliensis; [2])
O=C(CO)[C@@H](O)CO [Erythrulose, L-(+)-Erythrulose] | ±0% | 3300 cfu/ml | does not exert any anti-fungal effect | 2 | 100 cfu/ml | – | –
CC(=O)c1ccc(O)cc1 [p-Hydroxyacetophenone, 1-(4-hydroxyphenyl)-ethanone] | −83% | 550 cfu/ml | – | – | – | 2 | 100 cfu/ml
